How the values were obtained:
[1] = Storage stability of 1-131 Hippuran: percent remaining bound; assay type: physicochemical; conditions: 1 mCi per vial
Procedure: As another example, 1-131 Hippuran was prepared. The 1-131 Hippuran was prepared as follows: 9 vials were prepared of 1-131 Hippuran in solution with a radioactive concentration of MIBG of 1 mCi per vial. Each vial had 4 cc. The 1-131 in seven of those vials was then stabilized and lyophilized according to the process described in this invention. One vial was frozen and maintained at a temperature of −10 degrees, and another vial was maintained room temperature. Room temperature was selected because Hippuran is thought to be stable at room temperature even in conjunction with a radioisotope. […]

[2] = Storage stability of I-131 MIBG: percent of iodine remaining bound to the MIBG; assay type: physicochemical; conditions: for percent of iodine remaining bound to the MIBG: 1 mCi per vial
Excerpt: The radioactive diagnostic radiopharmaceutical in this invention requires no further cold or refrigerated storage, including with respect to shipping, subsequent to stabilization. The lyophilized radiopharmaceutical composition is reconstituted “on site” for administration to patients by the addition of a suitable diluent to bring the radiopharmaceutical complex into solution at the time of administration to the patient. For administration, the I-123 labeled MIBG in the vial must be reconstituted. Because of the minute quantity of material, the vial of radionuclide complex, in the preferred mode the I-123 labeled MIBG will appear empty. The MIBG ligand is stable for several days because of the absence of water which is the primary substance from which free radicals are generated by gamma ray collisions with water molecules. The gamma rays are being emitted by the radionuclide, that is the I-123. The health care provider would add up to 2 ml. of sterile normal saline. The desired dose would be withdrawn and measured in a dose calibrator of a type manufactured by Capintec of Montville, N.J. If the glass vial is measured in the dose calibrator, the person measuring the dose must recognize that the glass vial will decrease the apparent activity. Upon calibration of the desired dose, the I-123 MIBG now re-dissolved in the solution is promptly administered to the patient. The advantages are that the flash freezing and lowering of vapor pressure result in quick formation and evaporation or sublimation (evaporation from ice to water vapour (a gas)) of water from the I-123 MIBG. The I-123 MIBG need not be shipped frozen in dry ice nor need it be shipped for overnight delivery. Shipping in dry ice over a weekend is generally not commercially practical. The I-123 MIBG can be shipped over the weekend and be used on Monday while simply maintaining it at room temperature or below. In order to establish the advantages of the novel process and resulting composition, a series of tests were run utilizing meta iodo benzyl guanidine (MIBG) in which the radionuclide I-131 was the iodine in the MIBG.
The MIBG was prepared as follows: eight vials were prepared of MIBG in solution with a radioactive concentration of MIBG of 1 mCi per vial. The MIBG in six of those vials were then stabilized and lyophilized according to the process described in this invention. One vial was frozen and maintained at a temperature of −10 degrees, and another vial was simply refrigerated at approximately 5 degrees.
Six vials were prepared according to the process in this invention in order to enable several to be reconstituted from the lyophilized state and their activity tallied.
The radioactive concentration of MIBG per vial was 1 mCi per vial.
The results showing the percent of iodine remaining bound to the MIBG are set forth in table I. One each of the vials was reconstituted after 24, 48, 72 and 168 hours respectively.

O=C([O-])CNC(=O)c1ccccc1[131I].[Na+] [Hippuran]
percent of Hippuran remaining bound to the I-123 ([1]; Frozen −10°, 0 hours): 98%
percent of Hippuran remaining bound to the I-123 ([1]; Frozen −10°, 24 hrs): 97.8%
percent of Hippuran remaining bound to the I-123 ([1]; Frozen −10°, 48 hrs): 97%
percent of Hippuran remaining bound to the I-123 ([1]; Frozen −10°, 72 hrs): 94%
percent of Hippuran remaining bound to the I-123 ([1]; Frozen −10°, 96 hrs): 92.5%
percent of Hippuran remaining bound to the I-123 ([1]; Frozen −10°, 120 hrs): 91%
percent of Hippuran remaining bound to the I-123 ([1]; Lyophilized and stabilized per invention, stored at room temp., 0 hours): 98%
percent of Hippuran remaining bound to the I-123 ([1]; Lyophilized and stabilized per invention, stored at room temp., 24 hrs): 98.4%
percent of Hippuran remaining bound to the I-123 ([1]; Lyophilized and stabilized per invention, stored at room temp., 48 hrs): 98.6%
percent of Hippuran remaining bound to the I-123 ([1]; Lyophilized and stabilized per invention, stored at room temp., 72 hrs): 98%
percent of Hippuran remaining bound to the I-123 ([1]; Lyophilized and stabilized per invention, stored at room temp., 96 hrs): 98.4%
percent of Hippuran remaining bound to the I-123 ([1]; Lyophilized and stabilized per invention, stored at room temp., 120 hrs): 98.5%
percent of Hippuran remaining bound to the I-123 ([1]; Room Temp. (solution, not lyophilized), 0 hours): 98%
percent of Hippuran remaining bound to the I-123 ([1]; Room Temp. (solution, not lyophilized), 24 hrs): 96%
percent of Hippuran remaining bound to the I-123 ([1]; Room Temp. (solution, not lyophilized), 48 hrs): 95%
percent of Hippuran remaining bound to the I-123 ([1]; Room Temp. (solution, not lyophilized), 72 hrs): 94.5%
percent of Hippuran remaining bound to the I-123 ([1]; Room Temp. (solution, not lyophilized), 96 hrs): 92%
percent of Hippuran remaining bound to the I-123 ([1]; Room Temp. (solution, not lyophilized), 120 hrs): 90%

N=C(N)NCc1cccc([131I])c1 [MIBG, meta iodo benzyl guanidine]
percent of iodine remaining bound to the MIBG ([2]; Frozen −10°, 24 hours): 94%
percent of iodine remaining bound to the MIBG ([2]; Frozen −10°, 48 hours): 91%
percent of iodine remaining bound to the MIBG ([2]; Frozen −10°, 72 hours): 84%
percent of iodine remaining bound to the MIBG ([2]; Frozen −10°, 168 hours (1 wk.)): 72%
percent of iodine remaining bound to the MIBG ([2]; Lyophilized and stabilized per invention, stored at room temp., 24 hours): 97%
percent of iodine remaining bound to the MIBG ([2]; Refrigerated ~+5°, 24 hours): 92%
percent of iodine remaining bound to the MIBG ([2]; Refrigerated ~+5°, 48 hours): 85%
percent of iodine remaining bound to the MIBG ([2]; Refrigerated ~+5°, 72 hours): 77%
percent of iodine remaining bound to the MIBG ([2]; Refrigerated ~+5°, 168 hours (1 wk.)): 55%
activity on storage ([2]; not stabilized and lyophilized per this invention): deteriorated sharply

Source: patent US20080260639A1, “PREPARATION AND METHOD UTILIZING RADIOLABELED CHLOROTOXIN” (priority 2004, published 2008)
